Reference: ChEMBL document CHEMBL2074315, “Role of human organic anion transporter 4 in the transport of ochratoxin A” (Biochim Biophys Acta, 2002)

How the values were obtained:
Assay type in all cases: functional, cell-based
[1] = target: T1, Solute carrier family 22 member 11 (Homo sapiens, UniProt Q9NSA0); assay: TP_TRANSPORTER: inhibition of Ochratoxin A uptake (OTA: 1 uM, Aspartame: 200 uM) in OAT4-expressing S2 cells; settings: s2, 200 µM
T1 sequence (Q9NSA0 whole entry): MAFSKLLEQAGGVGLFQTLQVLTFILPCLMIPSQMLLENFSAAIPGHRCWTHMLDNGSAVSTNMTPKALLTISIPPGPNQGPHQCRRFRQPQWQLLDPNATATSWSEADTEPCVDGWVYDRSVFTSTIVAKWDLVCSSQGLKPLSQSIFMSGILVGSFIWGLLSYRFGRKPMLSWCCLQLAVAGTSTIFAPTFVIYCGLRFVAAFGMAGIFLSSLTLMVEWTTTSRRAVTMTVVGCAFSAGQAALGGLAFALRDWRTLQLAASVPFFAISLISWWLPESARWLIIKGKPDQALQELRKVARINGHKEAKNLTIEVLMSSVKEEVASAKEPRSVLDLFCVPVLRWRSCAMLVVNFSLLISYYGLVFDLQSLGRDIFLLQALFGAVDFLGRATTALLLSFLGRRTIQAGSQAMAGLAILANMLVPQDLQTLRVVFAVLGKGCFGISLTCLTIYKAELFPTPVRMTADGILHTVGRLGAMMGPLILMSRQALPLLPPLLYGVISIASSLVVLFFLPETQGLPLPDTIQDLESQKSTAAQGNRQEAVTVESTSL

[2] = target: T2, OAT4 (SLC22A11, solute carrier family 22 member 11) (Homo sapiens, UniProt Q9NSA0); assay: TP_TRANSPORTER: uptake in OAT4-expressing S2 cells
T2 sequence (Q9NSA0 whole entry): T1 sequence (Q9NSA0 whole entry)

[3] = target: T1, Solute carrier family 22 member 11; assay: TP_TRANSPORTER: inhibition of Ochratoxin A uptake (OTA: 1 uM, PAH: 200 uM) in OAT4-expressing S2 cells; settings: mouse, s2, 200 µM
[4] = target: T1, Solute carrier family 22 member 11; assay: TP_TRANSPORTER: inhibition of Ochratoxin A uptake in OAT4-expressing S2 cells
[5] = target: T1, Solute carrier family 22 member 11; assay: TP_TRANSPORTER: inhibition of Ochratoxin A uptake (OTA: 1 uM, Indomethacin: 200 uM) in OAT4-expressing S2 cells; settings: mouse, s2, 200 µM
[6] = target: T1, Solute carrier family 22 member 11; assay: TP_TRANSPORTER: inhibition of Ochratoxin A uptake (OTA: 1 uM, PCG: 200 uM) in OAT4-expressing S2 cells; settings: s2, 200 µM

## COC(=O)[C@H](Cc1ccccc1)NC(=O)[C@@H](N)CC(=O)O
[1]
  Activity: inhibitor [(at a rough estimate) 80 % of control]

## C[C@@H]1Cc2c(Cl)cc(C(=O)N[C@@H](Cc3ccccc3)C(=O)O)c(O)c2C(=O)O1 [3R14S-OCHRATOXIN A]
[2]
  Km: 22.9 µM

## Nc1ccc(C(=O)NCC(=O)O)cc1 [AMINOHIPPURIC ACID]
[3]
  Activity: is not an inhibitor [-]

## CC1=C2C(=CO[C@H](C)[C@H]2C)C(O)=C(C(=O)O)C1=O [CITRININ]
[4]
  Ki: 366 µM

## COc1ccc2c(c1)c(CC(=O)O)c(C)n2C(=O)c1ccc(Cl)cc1 [INDOMETHACIN]
[5]
  Activity: inhibitor [(at a rough estimate) 75 % of control]

## CCCCCCCC(=O)O [OCTANOIC ACID]
[4]
  Ki: 236 µM

## CC1(C)S[C@@H]2[C@H](NC(=O)Cc3ccccc3)C(=O)N2[C@H]1C(=O)O [PENICILLIN G]
[6]
  Activity: inhibitor [(at a rough estimate) 20 % of control]

## CN1C(C(=O)Nc2ccccn2)=C(O)c2ccccc2S1(=O)=O [PIROXICAM]
[4]
  Ki: 108 µM
